From the supplement of paper PMC10627819

Assays:
Settings in all cases: main component drawn
B. subtilis 168 [1] = experiment: fitness (endpoint OD595 vs no drug) (fraction); higher = more growth
How it was run: (§1)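 Cultures at OD595 0.01 were dispensed into 384-well plates in TSB, LB Lennox or CY and incubated at 37 °C. Every 30 min for 14 h, OD595 was read and corrected by the first reading. Fitness is the optical density at entry into stationary phase relative to the robust mean of no-drug control wells, capped at 1.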

S. aureus Newman [2] = experiment: as above
How it was run: as §1

B. subtilis 168 [3] = experiment: Bliss interaction score (quartile over a dose matrix) (fitness difference); higher = more antagonism (negative = synergy)
How it was run: (§2)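 The Bliss score is observed minus expected fitness, where expected fitness is the product of the single-drug fitness values inferred from the combination data. Fitness is the OD595 at the onset of stationary phase over the plate's robust no-drug mean, capped at 1. Scores are summarised by quartiles over technical, biological and donor/recipient replicates.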

S. aureus DSM 20231 = experiment: as above
How it was run: as §2

S. aureus Newman [4] = experiment: as above
How it was run: as §2

S. pneumoniae D39V = experiment: as above
How it was run: as §2
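Wherever Bliss interaction score (quartile over a dose matrix) is given: first quartile when negative (synergy) and third quartile when positive (antagonism).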

CC[C@H](C)[C@H](N)C1=N[C@H](C(=O)N[C@@H](CC(C)C)C(=O)N[C@H](CCC(=O)O)C(=O)N[C@H](C(=O)N[C@H]2CCCCNC(=O)[C@H](CC(N)=O)NC(=O)[C@@H](CC(=O)O)NC(=O)[C@H](Cc3cnc[nH]3)NC(=O)[C@@H](Cc3ccccc3)NC(=O)[C@H]([C@@H](C)CC)NC(=O)[C@@H](CCCN)NC2=O)[C@@H](C)CC)CS1 [Bacitracin] + COc1ccc(C[C@H](N)C(=O)N[C@H]2[C@@H](O)[C@H](n3cnc4c(N(C)C)ncnc43)O[C@@H]2CO)cc1 [Puromycin]
fitness
Settings | first compound 18.75 µg/mL | first compound 37.5 µg/mL | first compound 75 µg/mL | first compound 150 µg/mL
B. subtilis 168 [1], partner 0.39 µg/mL | – | 0.901 | 0.875 | 0.793
B. subtilis 168 [1], partner 0.78 µg/mL | – | 0.959 | 0.958 | –
B. subtilis 168 [1], partner 1.56 µg/mL | – | 0.903 | 0.881 | –
S. aureus Newman [2], partner 0.39 µg/mL | 0.693 | – | 0.0319 | –
S. aureus Newman [2], partner 0.78 µg/mL | 0.687 | 0.197 | 0.0272 | –
S. aureus Newman [2], partner 1.56 µg/mL | 0.685 | 0.0934 | 0.0307 | –

Settings | Bliss interaction score
B. subtilis 168 [3] | 0.0815
S. aureus DSM 20231 | -0.0671
S. aureus Newman [4] | -0.0486
S. pneumoniae D39V | 0.048

CC[C@H](C)[C@H](N)C1=N[C@H](C(=O)N[C@@H](CC(C)C)C(=O)N[C@H](CCC(=O)O)C(=O)N[C@H](C(=O)N[C@H]2CCCCNC(=O)[C@H](CC(N)=O)NC(=O)[C@@H](CC(=O)O)NC(=O)[C@H](Cc3cnc[nH]3)NC(=O)[C@@H](Cc3ccccc3)NC(=O)[C@H]([C@@H](C)CC)NC(=O)[C@@H](CCCN)NC2=O)[C@@H](C)CC)CS1 [Bacitracin] + COc1cccc2c1C(=O)c1c(O)c3c(c(O)c1C2=O)C[C@@](O)(C(=O)CO)C[C@@H]3O[C@H]1C[C@H](N)[C@H](O)[C@H](C)O1 [Doxorubicin]
fitness
Settings | partner 0.625 µg/mL | partner 1.25 µg/mL | partner 2.5 µg/mL
B. subtilis 168 [1], first compound 37.5 µg/mL | 0.889 | 0.851 | 0.686
B. subtilis 168 [1], first compound 75 µg/mL | 0.827 | 0.792 | –
B. subtilis 168 [1], first compound 150 µg/mL | 0.691 | 0.653 | –
S. aureus Newman [2], first compound 18.75 µg/mL | 0.607 | 0.598 | 0.513
S. aureus Newman [2], first compound 75 µg/mL | 0.0711 | 0.0343 | 0.0074

Settings | Bliss interaction score
B. subtilis 168 [3] | 0.0797
S. aureus DSM 20231 | 0.115
S. aureus Newman [4] | 0.0938
S. pneumoniae D39V | -0.0704

CC[C@H](C)[C@H](N)C1=N[C@H](C(=O)N[C@@H](CC(C)C)C(=O)N[C@H](CCC(=O)O)C(=O)N[C@H](C(=O)N[C@H]2CCCCNC(=O)[C@H](CC(N)=O)NC(=O)[C@@H](CC(=O)O)NC(=O)[C@H](Cc3cnc[nH]3)NC(=O)[C@@H](Cc3ccccc3)NC(=O)[C@H]([C@@H](C)CC)NC(=O)[C@@H](CCCN)NC2=O)[C@@H](C)CC)CS1 [Bacitracin] + C[C@@H]1O[C@@H]1P(=O)(O)O [Fosfomycin]
fitness
Settings | first compound 18.75 µg/mL | first compound 37.5 µg/mL | first compound 75 µg/mL | first compound 150 µg/mL
B. subtilis 168 [1], partner 1.562 µg/mL | – | 0.697 | 0.662 | 0.607
B. subtilis 168 [1], partner 3.124 µg/mL | – | 0.61 | 0.594 | 0.488
B. subtilis 168 [1], partner 6.248 µg/mL | – | 0.501 | 0.51 | 0.427
S. aureus Newman [2], partner 0.781 µg/mL | 0.507 | 0.0984 | 0.0911 | –
S. aureus Newman [2], partner 1.562 µg/mL | 0.471 | – | 0.0362 | –
S. aureus Newman [2], partner 3.124 µg/mL | 0.174 | 0.0141 | 0.0222 | –

Settings | Bliss interaction score
B. subtilis 168 [3] | 0.0941
S. aureus DSM 20231 | 0.109
S. aureus Newman [4] | 0.102
S. pneumoniae D39V | -0.0469

CC[C@H](C)[C@H](N)C1=N[C@H](C(=O)N[C@@H](CC(C)C)C(=O)N[C@H](CCC(=O)O)C(=O)N[C@H](C(=O)N[C@H]2CCCCNC(=O)[C@H](CC(N)=O)NC(=O)[C@@H](CC(=O)O)NC(=O)[C@H](Cc3cnc[nH]3)NC(=O)[C@@H](Cc3ccccc3)NC(=O)[C@H]([C@@H](C)CC)NC(=O)[C@@H](CCCN)NC2=O)[C@@H](C)CC)CS1 [Bacitracin] + C[n+]1ccc(-c2cc[n+](C)cc2)cc1 [Paraquat]
fitness
Settings | first compound 18.75 µg/mL | first compound 37.5 µg/mL | first compound 75 µg/mL | first compound 150 µg/mL
B. subtilis 168 [1], partner 1.25 µg/mL | – | 0.931 | 0.924 | 0.844
B. subtilis 168 [1], partner 2.5 µg/mL | – | 0.886 | 0.846 | 0.826
B. subtilis 168 [1], partner 5 µg/mL | – | 0.746 | 0.656 | –
S. aureus Newman [2], partner 1.25 µg/mL | 0.673 | 0.276 | 0.0637 | –
S. aureus Newman [2], partner 2.5 µg/mL | 0.725 | 0.315 | 0.0696 | –
S. aureus Newman [2], partner 5 µg/mL | 0.669 | 0.349 | 0.0708 | –

Settings | Bliss interaction score
B. subtilis 168 [3] | 0.115
S. aureus DSM 20231 | -0.0542
S. aureus Newman [4] | 0.0836
S. pneumoniae D39V | 0.0921

CC[C@H](C)[C@H](N)C1=N[C@H](C(=O)N[C@@H](CC(C)C)C(=O)N[C@H](CCC(=O)O)C(=O)N[C@H](C(=O)N[C@H]2CCCCNC(=O)[C@H](CC(N)=O)NC(=O)[C@@H](CC(=O)O)NC(=O)[C@H](Cc3cnc[nH]3)NC(=O)[C@@H](Cc3ccccc3)NC(=O)[C@H]([C@@H](C)CC)NC(=O)[C@@H](CCCN)NC2=O)[C@@H](C)CC)CS1 [Bacitracin] + Cc1cc(NS(=O)(=O)c2ccc(N)cc2)no1 [Sulfamethoxazol]
fitness, one replicate
Settings | first compound 18.75 µg/mL | first compound 37.5 µg/mL | first compound 75 µg/mL | first compound 150 µg/mL
B. subtilis 168 [1], partner 0.5 µg/mL | – | 0.947 | 0.998 | ≥ 1
S. aureus Newman [2], partner 8 µg/mL | 0.729 | 0.454 | 0.0253 | –

fitness
Settings | partner 1 µg/mL | partner 2 µg/mL | partner 4 µg/mL
B. subtilis 168 [1], first compound 37.5 µg/mL | 0.856 | 0.855 | 0.941
B. subtilis 168 [1], first compound 75 µg/mL | 0.832 | 0.851 | 0.852
S. aureus Newman [2], first compound 18.75 µg/mL | 0.775 | 0.76 | 0.819
S. aureus Newman [2], first compound 75 µg/mL | 0.0141 | 0.009 | 0.0028

Settings | Bliss interaction score
B. subtilis 168 [3] | 0.0966
S. aureus DSM 20231 | -0.0266
S. aureus Newman [4] | 0.104
S. pneumoniae D39V | 0.0767
